Laboratory results published in paper PMC10101059, “Rational Design of Stapled Antimicrobial Peptides to Enhance Stability and In Vivo Potency against Polymicrobial Sepsis” (Microbiology Spectrum, 2023).
Converted amounts (≈) assume the structure as drawn. Where two headings read alike, the source gives them in different places. Bridge positions count the residues as written; N and C are the ends. Square brackets hold non-standard residues; d marks the D form. Peptide text beside a SMILES is read from it. R5 = C=CCCC[C@@](C)(N)C(=O)O

Experiments:
[1] = tested on: Enterobacter aerogenes; assay: microbe, parasite or virus in culture; format: cell-based
Protocol: (§1) The antimicrobial assay was performed according to a modified National Committee for Clinical Laboratory Standards (NCCLS) protocol ([41], [42]). Briefly, 5 × 10^5 CFU/mL bacterial cells were treated with various peptide concentrations and incubated at 37 ± 2°C for 16 to 20 h. The lowest concentration with clear wells was recorded as the MIC for each test molecule. The clear wells were further plated in Mueller-Hinton agar (MHA) plates, followed by incubation overnight at 37 ± 2°C. After plating, the lowest concentration at which no growth was observed was recorded as the MBC. For the serum sensitivity assay, the antimicrobial activity of the peptides was tested in medium containing 50% human serum ([43], [44]).

[2] = tested on: Escherichia coli; assay: microbe, parasite or virus in culture; format: cell-based
Protocol: as §1

[3] = tested on: NDM-1 Klebsiella pneumoniae; assay: microbe, parasite or virus in culture; format: cell-based
Protocol: as §1

[4] = tested on: Pseudomonas aeruginosa; assay: microbe, parasite or virus in culture; format: cell-based; conditions: for MBC: read-out: MBC; for MIC: read-out: MIC
Protocol: as §1

[5] = tested on: A. baumannii biofilm; assay: Biofilm rupture assay; format: cell-based, Acinetobacter baumannii; conditions: even at 4× MIC
Protocol: (ii) Biofilm rupture assay. Fifty μL of A. baumannii bacterial strains suspension cultures (2 × 10^6 CFU/mL) were plated and incubated in a shaking incubator for 24 h. Then, the wells were washed with PBS and treated with 100 μL of peptide/drug at various concentrations. The plates were incubated for 24 h and then washed with PBS. The wells were treated with 100% methanol for 15 min, and the residual solution was washed followed by drying at room temperature. After the wells were dry, 100 μL of 0.02% crystal violet solution was added, followed by incubation for 30 min at room temperature. The wells were then washed with water and dried for an appropriate length of time. Once the wells were dry, 100 μL of 33% acetic acid was added to the wells and they were incubated at room temperature for 1 h. Absorbance was recorded at 595 nm ([55]).

[6] = tested on: MDR A. baumannii 14B001; assay: microbe, parasite or virus in culture; format: cell-based, Acinetobacter baumannii; conditions: for MIC: read-out: Single drug treatment MIC; for TP4-3 and meropenem combined MIC: MIC of each agent in combination
Protocol: The FICI was measured using a standard checkerboard microdilution assay ([57]). Two-fold dilutions of antibiotics were made across the x axis, and two-fold peptide dilutions were made across the y axis. Next, bacteria were added at 5 × 10^5 CFU/well (A. baumannii), followed by incubation at 37 ± 2°C for 16 to 20 h. FIC indices were calculated according to the following equations: FICI = FIC1 + FIC2; FIC1 = (MIC12 combined)/MIC1; FIC2 = (MIC12 combined)/MIC2. The combined efficacy was estimated as follows: FICI ≤ 0.5, synergistic; 0.5 to 1, additive; 1 to 2, indifferent; ≥2, antagonistic.

[7] = tested on: A. baumannii; assay: PI membrane permeabilization assay; format: cell-based, Acinetobacter baumannii; conditions: 25 μM, 10^8 CFU/mL
Protocol: Mid-log-phase bacterial cells (A. baumannii) were resuspended in 10 mM PBS (pH 7.4) to a density of 10^8 CFU/mL. The cell suspension was supplemented with 25 mM glucose followed by 15 min incubation at 37°C. After the incubation, N-phenyl-1-naphthylamine dye was added to a final concentration of 10 μM. Next, 90 μL of bacterial cells was transferred to a 96-well black plate, and fluorescence was recorded for 40 min (excitation/emission: 350/420 nm). […] After this treatment, fluorescence was recorded for an additional 20 min ([53]). Data are presented as fluorescence values as a function of time. Permeabilization of blank- and test compound-treated cells was compared. For the PI membrane permeabilization assay, 10^8 bacterial cells (A. baumannii) were resuspended in MHB containing 20 μg/mL PI. […] Fluorescence was read (excitation/emission: 584/620 nm). Fluorescence values of blank- and compound-treated cells were graphed as a function of time ([54], [55]).

[8] = tested on: A. baumannii; assay: SEM and TEM analysis; format: cell-based, Acinetobacter baumannii; conditions: 1× MIC
Protocol: The treated suspension was washed twice with 10 mM PBS (pH 7.4) followed by treatment with 4% glutaraldehyde. Next, the suspension was incubated for 30 min at 4°C. Following the incubation, the treated suspension was centrifuged (5,000 × g, 10 min), and the pellet was placed on a glass slide and allowed to attach for 30 min. The glass slide was then subjected to gradient ethanol washing from 0% to 100% ethanol. Finally, the glass slides were dried and coated with gold for imaging ([55]). For TEM, glutaraldehyde samples were cryoimmobilized and subjected to TEM imaging ([58], [59]).

[9] = tested on: human keratinocyte (HaCaT); assay: alamarBlue cytotoxicity assay; format: cell-based; conditions: at 3.13 μM, 24 h
Protocol: (§2) (i) Cell culture. Human skin keratinocytes (HaCaT), human kidney (HK-2), and RAW 264.7 macrophage cells were obtained from the Bioresource Collection and Research Center (BCRC, Hsinchu, Taiwan). HaCaT and […] macrophage cells were cultured in Dulbecco’s modified Eagle’s medium (DMEM, Thermo Fischer, MA, USA.) supplemented with 10% FBS, penicillin (100 U/mL), and streptomycin (100 μg/mL) at 37°C under 5% CO2. HK-2 cells were cultured in glucose-free Keratinocyte serum-free medium (K-SFM) supplemented with 0.05 mg/mL bovine pituitary extract (BPE), 5 ng/mL EGF, 100 U/mL penicillin, and […] streptomycin at 37°C in 5% CO2 ([49]).
(§3) In vitro toxicity assay. The cytotoxicity of TP4-3 was evaluated by an alamarBlue assay. HaCaT, HK-2, and RAW 264.7 macrophage cells were seeded at densities of 1 × 10^4 cells/well in 96-well cell plates and treated with the indicated concentrations of TP4 and TP4-3 for 24 h (0.78 to 100 μM). Cells treated with 0.1% Triton X-100 and culture medium served as negative and positive-control groups, respectively. After incubation, the cells were washed and incubated for 2 h at 37°C with 90 μL Dulbecco’s modified Eagle medium (DMEM) containing 10 μL alamarBlue reagent. Fluorescence was recorded using a Spectra Max i3 Multi-Mode detection platform (Molecular Devices, San Jose, CA) to measure cell viability ([50], [51]).

[10] = tested on: human kidney cell (HK-2); assay: alamarBlue cytotoxicity assay; format: cell-based; conditions: at 3.13 μM, 24 h
Protocol: as §2, §3

[11] = tested on: murine macrophage (RAW 264.7); assay: alamarBlue cytotoxicity assay; format: cell-based; conditions: at 12.5 μM, 24 h
Protocol: as §2, §3

[12] = Klebsiella aerogenes, MHB medium
[13] = Escherichia coli, HS, 50% human serum containing MHB medium
[14] = HS, 50% human serum containing MHB medium
[15] = Klebsiella pneumoniae, MHB medium
[16] = Pseudomonas aeruginosa, MHB medium

Q: For `C[C@@H](O)[C@H]1C(=O)N2C(C(=O)O)=C(S[C@@H]3CN[C@H](C(=O)N(C)C)C3)[C@H](C)[C@H]12` [Meropenem], which MBC [1, 12] is on record?
A: Its MBC is 0.39 µM (≈ 0.15 µg/mL).

Q: What about the MIC [1, 12] of the same compound?
A: Its MIC is 0.39 µM (≈ 0.15 µg/mL).

Q: And the MBC [2, 13]?
A: The MBC was 0.78 µM (≈ 0.299 µg/mL).

Q: What about the MIC [2, 13] of the same compound?
A: Its MIC is 0.78 µM (≈ 0.299 µg/mL).

Q: And the MBC ([2]; Escherichia coli, MHB medium)?
A: The MBC was 0.39 µM (≈ 0.15 µg/mL).

Q: And the MIC ([2]; Escherichia coli, MHB medium)?
A: Its MIC is 0.39 µM (≈ 0.15 µg/mL).

Q: What about the MBC [3, 14] of the same compound?
A: Its MBC is over 25 µM.

Q: What about the MIC [3, 14] of the same compound?
A: Its MIC is over 25 µM.

Q: And the MBC [3, 15]?
A: The MBC was over 25 µM.

Q: What about the MIC [3, 15] of the same compound?
A: The MIC was over 25 µM.

Q: And the MBC ([4]; Pseudomonas aeruginosa, HS, 50% human serum containing MHB medium)?
A: Its MBC is 3.13 µM (≈ 1.2 µg/mL).

Q: What about the MBC [4, 16] of the same compound?
A: Its MBC is 6.25 µM (≈ 2.4 µg/mL).

Q: And the MIC [4, 16]?
A: The MIC was 3.13 µM (≈ 1.2 µg/mL).

Q: And the MIC [4]?
A: Its MIC is 1.56 µM (≈ 0.598 µg/mL).

Q: What about the mature biofilm rupture [5] of the same compound?
A: Its mature biofilm rupture is “minor potential for causing biofilm rupture”.

Q: And the MIC ([6]; Acinetobacter baumannii)?
A: The MIC was 800 µM.

Q: And the “TP4-3 and meropenem combined MIC” value ([6]; TP4-3 and M)?
A: The value was 400 µM.

Q: With `CC[C@H](C)[C@H](NC(=O)[C@@H](NC(=O)[C@@H](N)Cc1ccccc1)[C@@H](C)CC)C(=O)N[C@]1(C)CCCC=CCCC[C@](C)(C(=O)NCC(=O)N[C@@H](CC(C)C)C(=O)N[C@@H](Cc2ccccc2)C(=O)N[C@@H](CCCCN)C(=O)N[C@@H](CCCCN)C(=O)N[C@@H](CCCCN)C(=O)N[C@@H](C)C(=O)NCC(=O)N[C@@H](C)C(=O)N[C@]2(C)CCCC=CCCC[C@](C)(C(=O)N[C@H](C(=O)N[C@@H](CCCCN)C(=O)N[C@@H](CCCCN)C(=O)O)[C@@H](C)CC)NC(=O)[C@H](CCCCN)NC(=O)[C@H](CCCCN)NC(=O)[C@H](CCCCN)NC2=O)NC(=O)[C@H](CO)NC(=O)[C@H](CCCCN)NC(=O)[C@H](CCCCN)NC1=O` [TP4-3] (H-FII[R5]KKS[R5]GLFKKKAGA[R5]KKK[R5]IKK-OH; staple 4-8, 18-22; N-terminus and C-terminus assumed) as the compound, how does the MBC [1] read?
A: Its MBC is 25 µM (≈ 72.3 µg/mL).

Q: What about the MIC [1] of the same compound?
A: Its MIC is 25 µM (≈ 72.3 µg/mL).

Q: And the MBC [2]?
A: Its MBC is 25 µM (≈ 72.3 µg/mL).

Q: And the MIC [2]?
A: The MIC was 25 µM (≈ 72.3 µg/mL).

Q: And the MBC ([3]; NDM-1)?
A: Its MBC is 25 µM (≈ 72.3 µg/mL).

Q: And the MIC ([3]; NDM-1)?
A: The MIC was 25 µM (≈ 72.3 µg/mL).

Q: And the MBC [4]?
A: Its MBC is 25 µM (≈ 72.3 µg/mL).

Q: And the MIC [4]?
A: Its MIC is 25 µM (≈ 72.3 µg/mL).

Q: And the mature biofilm rupture [5]?
A: The mature biofilm rupture was “minor potential for causing biofilm rupture”.

Q: And the “PI fluorescence signal vs controls” value [7]?
A: The value was “approximately 3 fold”.

Q: What about the “bacterial membrane architecture (SEM, TEM)” value [8] of the same compound?
A: The value was “significant membrane deformation”.

Q: What about the cell death [9] of the same compound?
A: The cell death was under 10%.

Q: And the cell death [10]?
A: Its cell death is under 10%.

Q: What about the cell death [11] of the same compound?
A: The cell death was under 10%.

Q: And the MIC ([6]; MDR 14B001)?
A: Its MIC is 3.13 µM.

Q: And the “TP4-3 and meropenem combined MIC” value ([6]; TP4-3 and D)?
A: The value was 3.13 µM.

Q: What about the “TP4-3 and meropenem combined MIC” value ([6]; TP4-3 and M) of the same compound?
A: The value was 0.09 µM.
